Results as given in patent US8163269B2, “Bioactive stents for type II diabetics and methods for use thereof” (priority 2004, dated 2012).

Tested on: progenitor endothelial cells (PECs)
Test: trial PEC isolation, plating on coated plates
Assay type: cell-based, human
Details: fibronectin-coated versus gelatin-coated plates
Description: PEC Isolations To establish the protocol for isolating the progenitor endothelial cells (PECs) from peripheral blood, blood from healthy, normal donors was used. A literature review generated multiple PEC isolation protocols (J.C.I. (2000) 105:71-77; Circ. (2003) 107:143-149; Circ. (2003) 107:1164-1169; Plast. Reconstruc. Surgr. (2004) 113:284; and Am. J. Physiol. Heart Circ. Physiol. (2004) 286:H1985-H1993). […] The flow chart in FIG. 2 presents a modified protocol followed in isolation of PECs.
Cells were isolated from ˜120 milliliters of peripheral blood and then single aliquots of cells were plated in Endothelial Basal Medium and 5% FBS (Cambrex). The media was changed every 4-5 days. The total cell number obtained from the isolations was donor-dependent and ranged from 40 million to 200 million cells.

fibronectin
attachment and growth of isolated cells on coated plates: attach and grow better on fibronectin-coated plates than on gelatin-coated plates
